Reference: US7855214B2, “Fused cyclic systems useful as inhibitors of TEC family protein kinases” (Vertex Pharmaceuticals Incorporated, priority 2004, dated 2010)
pKi: −log10 of the molar value.

Molecular target: T1, Itk (Homo sapiens, UniProt Q08881)
T1 sequence (Q08881 1-620): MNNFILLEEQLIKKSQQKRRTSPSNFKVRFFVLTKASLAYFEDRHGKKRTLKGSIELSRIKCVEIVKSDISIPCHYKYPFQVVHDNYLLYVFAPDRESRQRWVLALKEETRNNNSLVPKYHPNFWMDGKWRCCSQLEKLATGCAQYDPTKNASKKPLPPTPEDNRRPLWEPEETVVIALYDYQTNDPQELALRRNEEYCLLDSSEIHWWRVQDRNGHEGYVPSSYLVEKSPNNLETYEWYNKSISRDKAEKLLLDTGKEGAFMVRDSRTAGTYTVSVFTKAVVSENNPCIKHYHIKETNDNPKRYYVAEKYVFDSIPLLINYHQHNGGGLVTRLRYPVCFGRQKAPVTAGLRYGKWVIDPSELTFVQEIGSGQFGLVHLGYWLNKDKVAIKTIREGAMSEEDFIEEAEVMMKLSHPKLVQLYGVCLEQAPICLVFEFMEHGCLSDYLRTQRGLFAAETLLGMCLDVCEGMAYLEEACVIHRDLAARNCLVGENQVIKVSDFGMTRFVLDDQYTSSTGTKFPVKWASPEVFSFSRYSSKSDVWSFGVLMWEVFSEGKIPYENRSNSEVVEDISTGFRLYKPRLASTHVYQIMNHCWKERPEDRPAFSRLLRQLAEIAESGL
Experiment: ITK Inhibition Assay (AlphaScreen)
Assay type: biochemical
Conditions: Ki(app); 100 μM ATP, 2 μM biotinylated SAM68 peptide, 30 nM Itk, 25° C.
Description: Compounds were screened for their ability to inhibit Itk using an AlphaScreen™ phosphotyrosine assay at Vertex Pharmaceuticals. Assays were carried out in a mixture of 20 mM MOPS (pH 7.0), 10 mM MgCl2, 0.1% BSA and 1 mM DTT. Final substrate concentrations in the assay were 100 μM ATP (Sigma Chemicals) and 2 μM peptide (Biotinylated SAM68 Δ332-443). Assays were carried out at 25° C. and in the presence of Itk (30 nM). An assay stock buffer solution was prepared containing all of the reagents listed above, with the exception of ATP and the test compound of interest. 25 μL of the stock solution was placed in each well of a 96 well plate followed by 1 μL of DMSO containing serial dilutions of the test compound (typically starting from a final concentration of 15 μM) in duplicate (final DMSO concentration 2%). The plate was preincubated for 10 minutes at 25° C. and the reaction initiated by addition of 25 μL ATP (final concentration 100 μM). Background counts were determined by the addition of 5 μL 500 mM EDTA to control wells containing assay stock buffer and DMSO prior to initiation with ATP.
The reaction was stopped after 30 minutes by diluting the reaction 225-fold into MOPS buffer (20 mM MOPS (pH 7.0), 1 mM DTT, 10 mM MgCl2, 0.1% BSA) containing 50 mM EDTA to bring the final concentration of Biotin-SAM68 to 9 nM.
AlphaScreen™ reagents were prepared according to the manufacturers instructions (AlphaScreen™ phosphotyrosine (P-Tyr-100) assay kit, PerkinElmer catalogue number 6760620C). Under subdued lighting, 20 μL of AlphaScreen™ reagents were placed in each well of a white half area 96 well plate (Corning Inc.—COSTAR 3693) with 30 μL of the stopped, diluted kinase reactions. Plates were incubated in the dark for 60 minutes prior to reading on a Fusion Alpha plate reader (PerkinElmer).
After removing mean background values for all of the data points, Ki(app) data were calculated from non-linear regression analysis using the Prism software package (GraphPad Prism version 3.0cx for Macintosh, GraphPad Software, San Diego Calif., USA).

| Compound | pKi |
| --- | --- |
| Nc1ccc2c(=O)n3c(nc(Nc4cc(C5CC5)[nH]n4)c4ccccc43)nc2c1 [Compound I-1] | > 6.00 |
| CCOC(=O)Nc1ccc2c(=O)n3c(nc(Nc4cc(C5CC5)n[nH]4)c4ccccc43)nc2c1 [Compound I-16] | > 6.00 |
| COc1cc2nc3nc(Nc4cc(C5CCCC5)n[nH]4)c4ccccc4n3c(=O)c2cc1OC [Compound I-11] | > 6.00 |
| COc1cc2nc3nc(Nc4cc(C5CC5)n[nH]4)c4ccccc4n3c(=O)c2cc1OC [Compound I-10] | > 6.00 |
| Cc1cc(Nc2nc3nc4cc(N)ccc4c(=O)n3c3ccccc23)[nH]n1 [Compound I-3] | > 6.00 |
| O=c1c2ccccc2nc2nc(Nc3cc(C4CC4)n[nH]3)c3c(n12)CCCC3 [Compound I-17] | > 6.00 |
| O=c1c2ccccc2nc2nc(Nc3cc(C4CC4)n[nH]3)c3c(n12)CCC3 [Compound I-15] | > 6.00 |
| COc1cc2nc3nc(Nc4cc(C(C)C)n[nH]4)c4ccccc4n3c(=O)c2cc1OC [Compound I-14] | > 6.00 |

Second part, the compound after the results:

| pKi | Compound |
| --- | --- |
| > 6.00 | O=c1c2ccccc2nc2nc(Nc3cc(C4CC4)n[nH]3)c3ccccc3n12 [Compound I-2] |
| > 6.00 | O=c1c2ccccc2nc2nc(Nc3cc(C4CCCC4)n[nH]3)c3ccccc3n12 [Compound I-9] |
| > 6.00 | CC(C)c1cc(Nc2nc3nc4ccccc4c(=O)n3c3ccccc23)[nH]n1 [Compound I-7] |
| > 6.00 | COCCCc1cc(Nc2nc3nc4ccccc4c(=O)n3c3ccccc23)n[nH]1 [Compound I-21] |
| > 6.00 | CCCc1cc(Nc2nc3nc4ccccc4c(=O)n3c3ccccc23)n[nH]1 [Compound I-13] |
| > 6.00 | O=c1c2ccccc2nc2nc(Nc3cc(CCCO)[nH]n3)c3ccccc3n12 [Compound I-20] |
